Like-named read-outs stand apart in the source and are kept apart here.
How the values were obtained:
reverse transcriptase = reverse transcriptase (Human immunodeficiency virus type 1 group M subtype B, UniProt P04585); settings: cited from earlier work
HIV-1 (LAI isolate) [1] = experiment: Anti-HIV-1 activity (RTase in culture supernatant) in CEM-TK− cells; assay type: cell-based; settings: for EC50: CEM-TK− cells, lowest concentration reducing RTase production by at least 50%, 5 days, read-out: ED50 (the source's name)
Description: (§1) HIV-1 replication (LAI isolate) in CEM cells is measured by assaying the reverse transcriptase (RTase) in the culture supernatant after infection for 5 days. This activity reflects the presence of the virus released by the cells. After adsorption of the virus, the test compounds are added, at various concentrations, to the culture medium.
(§2) Antiviral activity is expressed as the lowest concentration of compound which reduces the production of RTase by at least 50% (ED50)
(§3) The compounds were tested as described in Example 5 above.
(§4) The iso-SATE pronucleotides of Examples 16A and 16B were evaluated for their inhibitory effects on the replication of HIV-1 in CEM-SS and in thymidine-kinase deficient cell lines (CEM/TD). For comparison, the parent nucleosides ddA and d4T, and the corresponding bis(SATE) phosphotriesters bis(tBuSATE)ddAMP (the compound of Example 9) and bis(tBuSATE)d4TMP, were evaluated in the same experiments.

[2] = test system: non-infected CEM-TK− cells; experiment: Toxic effect on non-infected cells (MTT/formazan), CEM-TK−; assay type: cell-based, Human; settings: 50% inhibition of formazan formation, 5 days
Description: (§5) The toxic effect on non-infected CEMs is assessed by a calorimetric reaction based on the capacity of living cells to reduce 3-(4,5-dimethylthiazol-2-yl)-2,5-diphenyltetrazolium bromide into formazan after incubation for 5 days in the presence of various concentrations of the compounds.

[3] = test system: non-infected CEM-SS cells; experiment: Toxic effect on non-infected cells (MTT/formazan), CEM-SS; assay type: cell-based, Human; settings: 50% inhibition of formazan formation, 5 days
Description: as §5

non-infected MT-4 cells = experiment: Toxic effect on non-infected cells (MTT/formazan), MT-4; assay type: cell-based, Human; settings: 50% inhibition of formazan formation
[4] = assay type: in vitro ADME
Description: (§6) The “ISRP on line” HPLC technique (“On-line Internal Surface Reversed-Phase Cleaning: The Direct HPLC Analysis of Crude Biological Samples”, A. Pompon, I. Lefebvre and J. L. Imbach, Biochemical Pharmacology, 43,1769-1775 (1992) was used for this study, the compound studied being incubated respectively in culture medium (RPMI/10% inactivated serum) and in a total cell extract (CEM).
(§7) Certain kinetic studies comparing the compound of Example 16A, i.e., S,S′-bis(O-pivaloyl-2-oxyethyl) O-2, 3-dideoxyadenosin-5′-yl phosphorodithiolate, also designated as iso[Bis(SATE)ddA] and its isosteric compound of Example 9, i.e., O-(2′,3′-dideoxyadenosin-5′-yl)-O,O′-bis([…]) phosphate, also designated as [Bis(SATE)ddAMP] were effected. The kinetic were studies were performed in culture medium (RPMI containing […] heat-inactivated fetal calf serum) in order to evaluate the stability of the pronucleotides in the extracellular medium used for antiviral evaluation in cell culture systems, and in total cell extracts that mimic the behavior of the compounds inside cells. The “on-line ISPR cleaning” HPLC method of Lefebvre et al., J. Med. Chem., 38, 3941-3950, 1995, were used for the studies. The products resulting from the decomposition were characterized by co-injection with authentic samples and/or by coupled HPLC/Mass Spectroscopy. The kinetics of transformation of the two isomeric pronucleotides strongly differed according to the medium. In culture medium the first iso-SATE group was cleaved in 38.5 hr whereas the first SATE group was cleaved in 165 hr. The second iso-SATE group was cleaved in 5.8 hr whereas the second SATE group was cleaved in 46 hr. In total cell extracts, the first iso-SATE group was cleaved in 5.3 hr whereas the SATE group was cleaved in 1 hr.

[5] = assay type: in vitro ADME, Human
Description: as §6, §7

HIV-1 (LAI isolate) [6] = experiment: Anti-HIV-1 activity (RTase in culture supernatant) in CEM-SS cells; assay type: cell-based; settings: lowest concentration reducing RTase production by at least 50%, 5 days, read-out: ED50 (the source's name)
Description: as §1, §2, §3, §4

HIV-1 = experiment: Anti-HIV-1 activity in MT-4 cells; assay type: cell-based, Human immunodeficiency virus; settings: for EC50: read-out: ED50 (the source's name)
Description: as §1, §2, §3

[7] = culture medium (RPMI with heat-inactivated fetal calf serum)

Compound | EC50 (HIV-1 (LAI isolate) [1]) [µM] | CD50 [2] | CD50 [3] | CD50 (non-infected MT-4 cells) | EC50 (HIV-1 (LAI isolate) [6]) [µM] | further results
O=c1ccn([C@H]2CC[C@@H](COP(=O)(O)OP(=O)(O)OP(=O)(O)O)O2)c(=O)[nH]1 [2′,3′-Dideoxyuridine 5′-triphosphate] | – | – | – | – | – | inhibition of reverse transcriptase (in words) (reverse transcriptase): excellent inhibitor
Cc1cn([C@H]2C[C@H](N=[N+]=[N-])[C@@H](CO)O2)c(=O)[nH]c1=O [AZT, 3′-azido-2′,3,-dideoxythymidine, reference compound] | > 100 | (CD50 > 10^−4 M) | (CD50 > 10^−4 M) | (CD50 > 10^−4 M) | – | –
CC(=O)SCCOP(=O)(OCCSC(C)=O)OC[C@@H]1CC[C@H](n2cnc3c(N)ncnc32)O1 [Bis(SATE)ddAMP, O-(2′,3′-Dideoxyadenosin-5′-yl)—O,O′-bis(S-acetyl-2-thioethyl)-phosphate] | – | (CD50 > 10^−5 M) | – | – | – | time in which the first (iso-)SATE group was cleaved [4]: 165 h; time in which the second (iso-)SATE group was cleaved [4]: 46 h; time in which the first (iso-)SATE group was cleaved [5]: 1 h
CC(=O)SCCOP(=O)(OCCSC(C)=O)OC[C@@H]1CC[C@H](n2cnc3c(=O)[nH]cnc32)O1 [Bis(SATE)ddIMP, O-(2′,3″ -Dideoxyinosin-5′-yl)-O,O′-bis(S-acetyl-2-thioethyl)-phosphate] | – | (CD50 > 10^−4 M) | (CD50 > 10^−4 M) | (CD50 > 10^−4 M) | – | –
CC(=O)SCCOP(=O)(OCCSC(C)=O)OC[C@@H]1CC[C@H](n2cc(C)c(=O)[nH]c2=O)O1 [Bis(SATE)ddTMP, O-(2′,3′-Dideoxythymidin-5′-yl)-O,O′-bis(S-acetyl-2-thioethyl)-phosphate] | – | (CD50 > 10^−4 M) | – | – | – | –
CC(=O)SCCOP(=O)(OCCSC(C)=O)OC[C@@H]1CC[C@H](n2ccc(=O)[nH]c2=O)O1 [Compound 1, O-(2′,3′-dideoxyuridin-5′-yl)-O,O′-bis(S-acetyl-2-thioethyl)phosphate] | 4 | (CD50 7 · 10^−5 M) | (CD50 9 · 10^−5 M) | (CD50 9 · 10^−5 M) | 5 | ED50 (HIV-1): 2 · 10^−6 M
O=c1ccn([C@H]2CC[C@@H](COP(=O)(OCCSSCCO)OCCSSCCO)O2)c(=O)[nH]1 [Compound 2, O,O′-Bis(S-(2-hydroxyethylsufidyl)-2-thioethyl)-o-(2′,3′-dideoxyuridin-5′-yl)phosphate] | 8 | (CD50 8 · 10^−5 M) | (CD50 10^−4 M) | – | 60 | half-life in culture medium ([4]; RPMI/10% inactivated serum): 9 h; half-life in cell extract ([5]; total cell extract (CEM)): less than 5 minutes
Cc1cn([C@H]2C[C@H](N=[N+]=[N-])[C@@H](COP(=O)(OCCSSCCO)OCCSSCCO)O2)c(=O)[nH]c1=O [Compound 3, O,O′-Bis(S-(2-hydroxyethylsufidyl)-2-thioethyl)-O-(3′azido-3′-deoxythymidin-5′-yl)phosphate] | 7 | (CD50 8 · 10^−5 M) | (CD50 8 · 10^−5 M) | (CD50 8 · 10^−5 M) | 0.0007 | EC50 (HIV-1): 0.001 µM
Nc1ncnc2c1ncn2CCOCP(=O)(OCCSSCCO)OCCSSCCO [Compound 4] | 0.08 | (CD50 4 · 10^−5 M) | (CD50 > 10^−4 M) | (CD50 2 · 10^−5 M). | 3 | EC50 (HIV-1): 0.8 µM
Cc1cn([C@H]2C=C[C@@H](CO)O2)c(=O)[nH]c1=O [d4T, reference compound] | – | – | – | – | – | anti-HIV-1 activity (in words, FIG. 10) (HIV-1 (LAI isolate) [1]; thymidine-kinase deficient CEM cells): weakly active
Nc1ncnc2c1ncn2[C@H]1CC[C@@H](CO)O1 [ddA, reference compound] | – | (CD50 > 10^−4 M) | (CD50 > 10^−4 M) | (CD50 > 10^−4 M) | – | EC50 (HIV-1): 10 µM
O=c1[nH]cnc2c1ncn2[C@H]1CC[C@@H](CO)O1 [ddI, reference compound] | – | (CD50 > 10^−4 M) | (CD50 > 10^−4 M) | (CD50 > 10^−4 M) | – | –
CC(C)(C)C(=O)OCCSP(=O)(OC[C@@H]1CC[C@H](n2cnc3c(N)ncnc32)O1)SCCOC(=O)C(C)(C)C [iso[Bis(SATE)ddA], S,S′-bis (Ö-pivaloyl-2-oxyethyl) O2′,3′-dideoxyadenosin-5′-yl phosphorodithiolate] | – | – | – | – | – | time in which the first (iso-)SATE group was cleaved [4, 7]: 38.5 h; time in which the second (iso-)SATE group was cleaved [4, 7]: 5.8 h; time in which the first (iso-)SATE group was cleaved ([5]; total cell extracts): 5.3 h

— patent US6555676B2, “Biologically active phosphotriester-type compounds” (Centre National de la Recherche Scientifique, priority 1992, dated 2003)
